Measured values published in publication PMC11589570, “Critical assessment of LC3/GABARAP ligands used for degrader development and ligandability of LC3/GABARAP binding pockets” (Nature Communications, 2024).

What was measured:
LC3 = biological target: LC3; parameters: method as in Dong et al.; settings: higher protein and compound concentrations; ref Dong et al.; read-out: Kd (ITC); cited from earlier work
GABARAPL2 = GABARAPL2 (Homo sapiens, UniProt P60520); assay: biochemical
Chain of GABARAPL2 (P60520 whole entry): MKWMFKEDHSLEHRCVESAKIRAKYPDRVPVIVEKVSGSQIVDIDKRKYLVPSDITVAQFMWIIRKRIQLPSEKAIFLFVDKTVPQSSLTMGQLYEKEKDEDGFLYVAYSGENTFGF

In the case of `Cc1ccc(C(=O)N(CCCN)[C@@H](c2nc3cc(Cl)ccc3c(=O)n2Cc2ccccc2)C(C)C)cc1` [compound 3, (R)-N-(3-aminopropyl)-N-(1-(3-benzyl-7-chloro-4-oxo-3,4-dihydroquinazolin-2-yl)−2-methylpropyl)−4-methylbenzamide], the Kd (LC3) is given as ~12 µM.
`O=C1Nc2ccc(I)cc2C1=Cc1cc(Br)c(O)c(Br)c1` [compound 4] gave a Kd (GABARAPL2) of 15 to 30 µM.
